In patent US10040781B2, “Tank-binding kinase inhibitor compounds” (Gilead Sciences, Inc., priority 2014, dated 2018) one finds IC50 data, which are given here for 21 compounds.

pIC50: −log10 of the molar value. Where two headings read alike, the source gives them in different places.

The target in one assay is IKKε (Homo sapiens (Human), UniProt Q14164). The assay is described as follows: IKKε TR-FRET enzymatic assay. In kind it is biochemical. Conditions: read-out: IKKe IC50. For orientation: Time-resolved FRET reads energy transfer from a long-lived donor to a nearby acceptor.
Sequence of IKKε (Q14164 whole entry): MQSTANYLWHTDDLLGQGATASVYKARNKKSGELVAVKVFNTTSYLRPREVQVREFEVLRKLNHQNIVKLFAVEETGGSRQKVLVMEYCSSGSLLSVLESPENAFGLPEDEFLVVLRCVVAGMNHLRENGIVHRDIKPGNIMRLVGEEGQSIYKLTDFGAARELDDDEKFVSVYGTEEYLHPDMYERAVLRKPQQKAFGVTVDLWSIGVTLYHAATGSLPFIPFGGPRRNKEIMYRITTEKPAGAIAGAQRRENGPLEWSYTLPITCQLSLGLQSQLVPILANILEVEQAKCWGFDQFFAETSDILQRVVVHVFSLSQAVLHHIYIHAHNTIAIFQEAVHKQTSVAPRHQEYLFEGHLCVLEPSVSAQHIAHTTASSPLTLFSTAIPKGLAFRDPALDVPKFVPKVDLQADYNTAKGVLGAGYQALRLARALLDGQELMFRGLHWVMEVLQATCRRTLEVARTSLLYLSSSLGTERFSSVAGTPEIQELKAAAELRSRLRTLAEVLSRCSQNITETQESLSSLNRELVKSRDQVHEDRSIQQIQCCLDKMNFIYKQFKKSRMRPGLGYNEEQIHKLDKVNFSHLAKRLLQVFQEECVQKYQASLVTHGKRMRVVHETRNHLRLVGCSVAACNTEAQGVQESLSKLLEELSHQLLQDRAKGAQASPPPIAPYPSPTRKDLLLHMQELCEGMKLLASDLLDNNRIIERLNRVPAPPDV
The target of a further assay is hJAK2 (Homo sapiens (Human), UniProt O60674). Briefly: hJAK2 LANCE TR-FRET enzymatic assay. In kind it is biochemical. Conditions: read-out: JAK2 IC50.
Sequence of hJAK2 (O60674 whole entry): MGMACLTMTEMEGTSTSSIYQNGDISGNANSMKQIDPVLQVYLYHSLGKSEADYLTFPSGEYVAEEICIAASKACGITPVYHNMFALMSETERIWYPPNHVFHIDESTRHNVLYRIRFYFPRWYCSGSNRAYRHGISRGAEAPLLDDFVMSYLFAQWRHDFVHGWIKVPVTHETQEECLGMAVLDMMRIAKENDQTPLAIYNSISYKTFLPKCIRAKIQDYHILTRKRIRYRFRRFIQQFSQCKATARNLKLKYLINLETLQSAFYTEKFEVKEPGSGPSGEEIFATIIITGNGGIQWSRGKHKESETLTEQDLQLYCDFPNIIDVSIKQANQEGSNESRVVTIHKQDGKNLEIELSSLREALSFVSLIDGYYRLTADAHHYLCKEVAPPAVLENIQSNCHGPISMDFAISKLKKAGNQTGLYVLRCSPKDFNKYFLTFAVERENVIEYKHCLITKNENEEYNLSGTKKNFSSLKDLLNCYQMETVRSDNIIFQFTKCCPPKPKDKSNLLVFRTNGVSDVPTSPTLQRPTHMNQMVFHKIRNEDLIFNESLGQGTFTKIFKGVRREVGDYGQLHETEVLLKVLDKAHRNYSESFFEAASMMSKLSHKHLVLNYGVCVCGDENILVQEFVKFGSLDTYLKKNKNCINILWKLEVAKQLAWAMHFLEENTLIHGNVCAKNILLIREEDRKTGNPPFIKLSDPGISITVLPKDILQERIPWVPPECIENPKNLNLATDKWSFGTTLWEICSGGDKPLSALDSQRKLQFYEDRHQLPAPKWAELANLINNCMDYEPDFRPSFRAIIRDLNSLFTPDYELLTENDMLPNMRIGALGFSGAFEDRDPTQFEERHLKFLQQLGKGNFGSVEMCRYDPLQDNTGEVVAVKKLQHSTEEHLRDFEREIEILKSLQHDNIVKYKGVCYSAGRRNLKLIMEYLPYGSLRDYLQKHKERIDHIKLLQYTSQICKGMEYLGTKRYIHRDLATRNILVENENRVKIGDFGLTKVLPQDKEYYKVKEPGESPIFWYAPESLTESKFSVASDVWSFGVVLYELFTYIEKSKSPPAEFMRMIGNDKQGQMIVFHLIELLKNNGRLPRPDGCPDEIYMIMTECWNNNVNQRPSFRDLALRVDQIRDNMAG
For another assay, the target named is TBK1 (Homo sapiens (Human), UniProt Q9UHD2). The assay is described as follows: TBK1 TR-FRET enzymatic assay.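 Note: phosphorylation of a biotinylated Ser/Thr peptide by purified full-length recombinant TBK1, read by TR-FRET after 240 min at 25 °C, IC50 is the geometric mean of at least four runs.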
Sequence of TBK1 (Q9UHD2 whole entry): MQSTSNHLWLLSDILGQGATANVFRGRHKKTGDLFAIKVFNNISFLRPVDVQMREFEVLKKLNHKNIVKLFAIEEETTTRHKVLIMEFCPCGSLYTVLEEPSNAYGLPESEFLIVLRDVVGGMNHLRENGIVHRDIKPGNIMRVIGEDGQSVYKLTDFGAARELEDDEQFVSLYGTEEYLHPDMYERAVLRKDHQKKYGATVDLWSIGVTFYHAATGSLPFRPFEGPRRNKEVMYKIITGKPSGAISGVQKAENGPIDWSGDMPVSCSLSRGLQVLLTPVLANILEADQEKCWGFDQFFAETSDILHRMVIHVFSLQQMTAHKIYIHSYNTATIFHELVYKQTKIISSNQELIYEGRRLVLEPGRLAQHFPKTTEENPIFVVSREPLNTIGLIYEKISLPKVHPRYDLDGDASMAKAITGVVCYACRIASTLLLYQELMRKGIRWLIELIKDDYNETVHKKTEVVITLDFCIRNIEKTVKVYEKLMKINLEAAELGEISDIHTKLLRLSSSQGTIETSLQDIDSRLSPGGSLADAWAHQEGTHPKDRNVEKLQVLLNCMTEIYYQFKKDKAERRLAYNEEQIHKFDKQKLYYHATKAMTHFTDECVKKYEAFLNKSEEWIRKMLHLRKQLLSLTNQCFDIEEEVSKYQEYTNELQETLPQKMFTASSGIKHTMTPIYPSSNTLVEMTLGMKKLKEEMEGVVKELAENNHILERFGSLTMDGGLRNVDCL
The mark [1] stands for this setting: TR-FRET, 2×Km ATP, geometric mean of minimum four determinations.

One may read the pIC50 as the IC50 on a negative log10 scale, so that one unit is a factor of ten.

As to `N#Cc1cc(-c2ncnc(Nc3ccc(N4CCN(C5COC5)CC4)cc3)n2)ccc1O[C@@H]1CCC(=O)NC1` [Example 199, (R)-5-(4-((4-(4-(oxetan-3-yl)piperazin-1-yl)phenyl)amino)-1,3,5-triazin-2-yl)-2-((6-oxopiperidin-3-yl)oxy)benzonitrile], the values for the pIC50 at IKKε, on hJAK2 and against TBK1 were 8.22, 6.70 and 8.40, respectively.
Taken in the same sequence, the figures for `COc1cc(Nc2ncnc(-c3ccc(OC4CCOCC4)c(C#N)c3)n2)ccc1C1CCN(C2COC2)CC1` [Example 20, 5-(4-((3-methoxy-4-(1-(oxetan-3-yl)piperidin-4-yl)phenyl)amino)-1,3,5-triazin-2-yl)-2-((tetrahydro-2H-pyran-4-yl)oxy)benzonitrile] were 8.70, less than 6.00 and 8.70.
As for `CS(=O)(=O)N1CC(Oc2ccc(-c3ncnc(Nc4ccc(N5CCN(C6COC6)CC5)cc4)n3)cc2C#N)C1` [Example 273, 2-((1-(methylsulfonyl)azetidin-3-yl)oxy)-5-(4-((4-(4-(oxetan-3-yl)piperazin-1-yl)phenyl)amino)-1,3,5-triazin-2-yl)benzonitrile], the pIC50 was 6.55 at IKKε, 6.88 at hJAK2 and 6.86 at TBK1.
Regarding `N#Cc1cc(-c2ncnc(Nc3ccc(N4CCN(C5COC5)CC4)cc3)n2)ccc1O[C@H]1CCN(C(=O)CO)C[C@@H]1C(F)(F)F` (relative stereo) [Example 438, Trans-2-((1-(2-hydroxyacetyl)-3-(trifluoromethyl)piperidin-4-yl)oxy)-5-(4-((4-(4-(oxetan-3-yl)piperazin-1-yl)phenyl)amino)-1,3,5-triazin-2-yl)benzonitrile], the pIC50 on IKKε (setting [1]) is 8.10; at hJAK2 it was 7.82; against TBK1 it was 8.22.
As to `C[C@@H](O)C(=O)N1CC[C@H](Oc2ccc(-c3ncnc(Nc4ccc(N5CCN(C6COC6)CC5)cc4)n3)cc2C#N)C[C@@H]1C` [Example 182, 2-(((2S,4S)-1-((R)-2-hydroxypropanoyl)-2-methylpiperidin-4-yl)oxy)-5-(4-((4-(4-(oxetan-3-yl)piperazin-1-yl)phenyl)amino)-1,3,5-triazin-2-yl)benzonitrile], the pIC50 on IKKε is 7.02; on hJAK2, 6.31; against TBK1, 7.49.
Taken in the same sequence, the figures for `C[C@H](O)C(=O)N1CC[C@H](Oc2ccc(-c3ncnc(Nc4ccc(N5CCN(C6COC6)CC5)c(OC(F)F)c4)n3)cc2C#N)[C@H](F)C1` [Example 395, 5-(4-((3-(difluoromethoxy)-4-(4-(oxetan-3-yl)piperazin-1-yl)phenyl)amino)-1,3,5-triazin-2-yl)-2-(((3R,4S)-3-fluoro-1-((S)-2-hydroxypropanoyl)piperidin-4-yl)oxy)benzonitrile] were 9.00, 6.92 and 8.70.
Taken in the same sequence, the figures for `N#Cc1cc(-c2ncnc(Nc3ccc(N4CCN(C5COC5)CC4)cc3)n2)ccc1O[C@H]1CCN(C(=O)c2ccn[nH]2)CC1(F)F` [Example 164, (S)-2-((3,3-difluoro-1-(1H-pyrazole-5-carbonyl)piperidin-4-yl)oxy)-5-(4-((4-(4-(oxetan-3-yl)piperazin-1-yl)phenyl)amino)-1,3,5-triazin-2-yl)benzonitrile] were 9.00, 6.81 and 8.52.
The corresponding values for `N#Cc1cc(-c2ncnc(Nc3ccc(N4CCN(C5COC5)CC4)c(F)c3)n2)ccc1O[C@H]1CCN(C(=O)CO)C[C@H]1F` [Example 240, 2-(((3R,4S)-3-fluoro-1-(2-hydroxyacetyl)piperidin-4-yl)oxy)-5-(4-((3-fluoro-4-(4-(oxetan-3-yl)piperazin-1-yl)phenyl)amino)-1,3,5-triazin-2-yl)benzonitrile] are 9.00, 6.70 and 9.00.
For `Cc1n[nH]c(C(=O)N2CC[C@H](Oc3ccc(-c4ncnc(Nc5ccc(N6CCN(C7COC7)CC6)cc5)n4)cc3C#N)C(F)(F)C2)n1` [Example 452, (S)-2-((3,3-difluoro-1-(3-methyl-1H-1,2,4-triazole-5-carbonyl)piperidin-4-yl)oxy)-5-(4-((4-(4-(oxetan-3-yl)piperazin-1-yl)phenyl)amino)-1,3,5-triazin-2-yl)benzonitrile], the pIC50 at IKKε (setting [1]) is 9.00; at hJAK2, 7.64; against TBK1 it was 8.52.
As to `N#Cc1cc(-c2ncnc(Nc3ccc(N4CCN(C5COC5)CC4)cc3)n2)ccc1OC1CCCN(C(=O)CO)CC1` (stereo not drawn) [Example 97, 2-((1-(2-hydroxyacetyl)azepan-4-yl)oxy)-5-(4-((4-(4-(oxetan-3-yl)piperazin-1-yl)phenyl)amino)-1,3,5-triazin-2-yl)benzonitrile], the results for the pIC50 at IKKε, at hJAK2 and on TBK1 were 7.66, 6.62 and 7.96, respectively.
The corresponding values for `CN1CCC(c2ccc(Nc3ncnc(-c4ccc(O[C@H]5CCOC[C@H]5F)c(C#N)c4)n3)cc2)CC1` [Example 300, 2-(((3R,4S)-3-fluorotetrahydro-2H-pyran-4-yl)oxy)-5-(4-((4-(1-methylpiperidin-4-yl)phenyl)amino)-1,3,5-triazin-2-yl)benzonitrile] are 8.52, 6.34 and 8.40.
With `N#Cc1cc(-c2ncnc(Nc3ccc(N4CCN(C5COC5)CC4)cc3)n2)ccc1OCC1(F)COC1` [Example 280, 2-((3-fluorooxetan-3-yl)methoxy)-5-(4-((4-(4-(oxetan-3-yl)piperazin-1-yl)phenyl)amino)-1,3,5-triazin-2-yl)benzonitrile], the pIC50 is 8.00 on IKKε, 6.96 on hJAK2 and 8.40 against TBK1.
The corresponding values for `N#Cc1cc(-c2ncnc(Nc3ccc(N4CCN(C5COC5)CC4)c(C#N)c3)n2)ccc1OC1CCOCC1` [Example 38, 5-((4-(3-cyano-4-((tetrahydro-2H-pyran-4-yl)oxy)phenyl)-1,3,5-triazin-2-yl)amino)-2-(4-(oxetan-3-yl)piperazin-1-yl)benzonitrile] are 8.22, less than 6.00 and 8.52.
On to `Cn1ccc(Nc2ncnc(-c3ccc(OC4CCOCC4)c(C#N)c3)n2)n1` [Example 59, 5-(4-((1-methyl-1H-pyrazol-3-yl)amino)-1,3,5-triazin-2-yl)-2-((tetrahydro-2H-pyran-4-yl)oxy)benzonitrile], for which the pIC50 on IKKε is 7.08; on hJAK2, less than 6.00; against TBK1, 7.26.
The corresponding values for `N#Cc1cc(-c2ncnc(Nc3ccc(N4CCN(C5COC5)CC4)cc3)n2)ccc1OC1CCN(C(=O)[C@@H]2CCC(=O)N2)C[C@H]1F` (stereo partly drawn) [Example 112, 2-(((3R)-3-fluoro-1-((S)-5-oxopyrrolidine-2-carbonyl)piperidin-4-yl)oxy)-5-(4-((4-(4-(oxetan-3-yl)piperazin-1-yl)phenyl)amino)-1,3,5-triazin-2-yl)benzonitrile] are 8.40, 6.43 and 8.40.
Take `COCC(=O)N1CC[C@H](Oc2ccc(-c3ncnc(Nc4ccc(N5CCN(C6COC6)CC5)cc4)n3)cc2C#N)[C@H](F)C1` [Example 546, 2-(((3R,4S)-3-fluoro-1-(2-methoxyacetyl)piperidin-4-yl)oxy)-5-(4-((4-(4-(oxetan-3-yl)piperazin-1-yl)phenyl)amino)-1,3,5-triazin-2-yl)benzonitrile]: the pIC50 at IKKε (setting [1]) is 8.70; on hJAK2 it was 6.31; at TBK1 it was 8.70.
With `C[C@H]1CN(C2COC2)CCN1c1ccc(Nc2ncnc(-c3ccc(O[C@H]4CCN(C(=O)c5ccn[nH]5)C[C@H]4F)c(C#N)c3)n2)cc1` [Example 257, 2-(((3R,4S)-3-fluoro-1-(1H-pyrazole-5-carbonyl)piperidin-4-yl)oxy)-5-(4-((4-((S)-2-methyl-4-(oxetan-3-yl)piperazin-1-yl)phenyl)amino)-1,3,5-triazin-2-yl)benzonitrile], the pIC50 was 9.00 on IKKε, 6.57 on hJAK2 and 8.70 against TBK1.
For `CCOc1ccc(Nc2ncnc(-c3ccc(O[C@H]4CCN(C(=O)[C@H](C)O)C[C@H]4F)c(C#N)c3)n2)cn1` [Example 541, 5-(4-((6-ethoxypyridin-3-yl)amino)-1,3,5-triazin-2-yl)-2-(((3R,4S)-3-fluoro-1-((S)-2-hydroxypropanoyl)piperidin-4-yl)oxy)benzonitrile], the pIC50 at IKKε (setting [1]) is 7.77; at hJAK2, no more than 6.00; at TBK1 it was 7.82.
Consider `C[C@H](O)C(=O)N1CC[C@H](Oc2ccc(-c3ncnc(Nc4ccc(N5CC6(COC6)C5)cc4)n3)cc2C#N)[C@H](F)C1` [Example 364, 5-(4-((4-(2-oxa-6-azaspiro[3.3]heptan-6-yl)phenyl)amino)-1,3,5-triazin-2-yl)-2-(((3R,4S)-3-fluoro-1-((S)-2-hydroxypropanoyl)piperidin-4-yl)oxy)benzonitrile], for which the pIC50 on IKKε is 8.40; at hJAK2, 6.20; at TBK1, 8.30.
The corresponding values for `C[C@@H](O)C(=O)N1CC[C@@H](Oc2ccc(-c3ncnc(Nc4ccc(N5CCN(C6COC6)CC5)cc4)n3)cc2C#N)C(F)(F)C1` (single isomer, unassigned) [Example 159] are 6.68, 6.68 and 7.10.
Turning to `N#Cc1cc(-c2ncnc(Nc3ccc(N4CCN(C5COC5)CC4)cc3)n2)ccc1OCC1CCNC(=O)C1` (stereo not drawn) [Example 604, 5-(4-((4-(4-(oxetan-3-yl)piperazin-1-yl)phenyl)amino)-1,3,5-triazin-2-yl)-2-((2-oxopiperidin-4-yl)methoxy)benzonitrile], the pIC50 at IKKε is 7.43; on hJAK2, 6.02; against TBK1 it was 7.55.
